We go through seven compounds from patent US9968573B2, “Endoprosthesis having and active substance coating” (HEMOTEQ AG, priority 2011, dated 2018).

Experiment [1] deals with L929 cell line. The experiment is described as follows: In vitro cytotoxicity, growth inhibition of L929 cell line. The experiment is classed as cell-based. The conditions noted are these: 68-72 h. On the procedure:
The cytotoxic effect was tested on the growth inhibition of L929 cell line after incubation period of 68-72 h for 6 different concentrations according to relevant, valid DIN and ISO standards. DMEM 10% FCS was used as a negative control and the positive control was 5% DMSO in DMEM 10% FCS

Experiment [2] has as its system partially resistant Staphylococcus aureus strains. The conditions noted are these: conversion of literature MIC to gentamicin pantothenate per cm^2.
Description: For this purpose, coarse-blasted titanium cylinders were coated by pipetting with different amounts of ethanolic gentamicin-5-pantothenate solution and after drying the coating mass was determined by weighing. The coated titanium tubes were then γ-sterilized.
Approximate values for the upper limit and lower limit of the amount of coating on the test specimens were derived using data already known to cytotoxicity of gentamicin as a pure substance. […] The upper limit of the samples was determined on the basis of model calculations in combination with experimentally specifically determined data of cytotoxicity of gentamicin sulfate.
Experiment [3] deals with Staphylococcus aureus (ATCC 6538). As to conditions: Ti-Cylinder, rough surface. On the procedure:
Then, the minimum inhibitory concentration (MIC) for Staphylococcus aureus (ATCC 6538) is determined over a serial dilution series according to DIN 58940 (Part 7).

Experiment [4] deals with L929 cells. As to conditions: Ti-Cylinder, rough surface, 24 h extract, L929 68 h. On the procedure:
This allows a conclusion on the proliferation of the cells during incubation.

Experiment [5] relates to partially resistant Staphylococcus aureus strains. The conditions noted are these: gentamicin as a pure substance (Alt et al., 2004); cited from earlier work.

Read-outs that look alike come from different tables or passages of the source.

On to calcium pantothenate [Ca pantothenate], for which the “GI (growth inhibition of the cell line L929)” value in experiment [1] (c 0.3 mg/mL, n = 3) turned out to be 0%; in experiment [1] (c 0.6 mg/mL, n = 3) it was 0%; in experiment [1] (c 1.2 mg/mL, n = 3), 4%; in experiment [1] (c 1.8 mg/mL, n = 3), 7%; in experiment [1] (c 2.4 mg/mL, n = 3), 1%; in experiment [1] (c 3.0 mg/mL, n = 3), 2%.
As for gentamicin sulfate, the “GI (growth inhibition of the cell line L929)” value in experiment [1] (c 0.3 mg/mL, n = 3) is reported as 4%; in experiment [1] (c 0.6 mg/mL, n = 3), 8%; in experiment [1] (c 1.2 mg/mL, n = 3) it was 12%; in experiment [1] (c 1.8 mg/mL, n = 3), 12%; in experiment [1] (c 2.4 mg/mL, n = 3), 22%; in experiment [1] (c 3.0 mg/mL, n = 3), 29%.
In the case of Gentamicin-Penta-Pantothenate, the “mathematically required minimum dose (lower limit)” value in experiment [2] turned out to be 28 μg/cm^2. In addition, the “calculated MIC” value in experiment [3] (20 μg/cm^2) was 50 µg/mL; in experiment [3] (50 μg/cm^2) it was 62.5 µg/mL; in experiment [3] (100 μg/cm^2) it was 31.25 µg/mL. Moreover, the figures for the “Growth Inhibition” value in experiment [4] (700 μg/cm^2), in experiment [4] (800 μg/cm^2) and in experiment [4] (900 μg/cm^2) were 23%, 18% and 20%, respectively.
For the compound `CCCCCCCCCCCCCCCC(=O)O` [palmitic acid], the “GI (growth inhibition of the cell line L929)” value came to 2% in experiment [1] (c 0.005 mg/mL, n = 3, solvent 0.5% ethanol); 5% in experiment [1] (c 0.01 mg/mL, n = 3, solvent 0.5% ethanol); 8% in experiment [1] (c 0.02 mg/mL, n = 3, solvent 0.5% ethanol); 17% in experiment [1] (c 0.03 mg/mL, n = 3, solvent 0.5% ethanol); 22% in experiment [1] (c 0.04 mg/mL, n = 3, solvent 0.5% ethanol); 30% in experiment [1] (c 0.05 mg/mL, n = 3, solvent 0.5% ethanol).
As to gentamicin, in experiment [5], the minimum inhibitory concentration is 64 µg/mL.
Consider `O=C(O)c1ccccc1O` [salicylic acid], for which the “GI (growth inhibition of the cell line L929)” value in experiment [1] (c 0.1 mg/mL, n = 3) is on record as 16%; in experiment [1] (c 0.3 mg/mL, n = 3), 19%; in experiment [1] (c 0.5 mg/mL, n = 3) it was 42%; in experiment [1] (c 0.8 mg/mL, n = 3) it was 54%; in experiment [1] (c 1.1 mg/mL, n = 3), 67%; in experiment [1] (c 1.3 mg/mL, n = 3), 74%.
Consider `O=C(O)c1ccccc1` [benzoic acid], for which the “GI (growth inhibition of the cell line L929)” value in experiment [1] (c 0.3 mg/mL, n = 3) is 10%; in experiment [1] (c 0.6 mg/mL, n = 3), 20%; in experiment [1] (c 0.9 mg/mL, n = 3), 35%; in experiment [1] (c 1.5 mg/mL, n = 3) it was 50%; in experiment [1] (c 2.1 mg/mL, n = 3), 64%; in experiment [1] (c 3.0 mg/mL, n = 3), 77%.
